How the values were obtained:
[1] = Protein binding in human plasma at 1 uM incubated incubated for 5 hrs under shaking conditions by LC-MS analysis; assay type: ADME, cell-free; settings: read-out: PPB (converted)
[2] = molecular target: ALK tyrosine kinase receptor (Homo sapiens, UniProt Q9UM73); assay: Inhibition of human recombinant ALK (1058 to end residues) using KKKSPGEYVNIEF as substrate incubated for 40 mins in presence of [gamma-33P]ATP by radiometric scintillation counting analysis
[3] = molecular target: Tyrosine-protein kinase ABL2 (Homo sapiens, UniProt P42684); assay: Inhibition of human recombinant ARG (48 to end residues) using EAIYAAPFAKKK as substrate incubated for 40 mins in presence of [gamma-33ATP] by radiometric scintillation counting analysis
[4] = molecular target: 5'-AMP-activated protein kinase catalytic subunit alpha-1 (Homo sapiens, UniProt Q13131); assay: Inhibition of human full length AMPKalpha1 recombinant using AMARAASAAALAR as substrate incubated for 40 mins in presence of [gamma-33ATP] by radiometric scintillation counting analysis
[5] = molecular target: Cyclin-dependent kinase 2/cyclin E1 (Homo sapiens, UniProt P24941); assay: Inhibition of recombinant full length human CDK2/CyclinE using Histone H1 as substrate incubated for 40 mins in presence of [gamma-33ATP] by radiometric scintillation counting analysis; assay type: protein-complex assay
CDK6/cyclin D3 = CDK6/cyclin D3 (Homo sapiens, UniProt Q00534); assay: Inhibition of recombinant full length human CDK6/cyclinD3 using histone H1 as substrate incubated for 40 mins in presence of [gamma-33ATP] by radiometric scintillation counting analysis; assay type: protein-complex assay
[6] = molecular target: Mast/stem cell growth factor receptor Kit (Homo sapiens, UniProt P10721, D816V); assay: Inhibition of recombinant human C-Kit D816V mutant (544 to end residues) using poly(Glu, Tyr) 4:1 as substrate incubated 40 mins in presence of [gamma-33ATP] by radiometric scintillation counting analysis
Sequence of Mast/stem cell growth factor receptor Kit (Homo sapiens, UniProt P10721, D816V) (P10721 26-976 D816V limits assumed): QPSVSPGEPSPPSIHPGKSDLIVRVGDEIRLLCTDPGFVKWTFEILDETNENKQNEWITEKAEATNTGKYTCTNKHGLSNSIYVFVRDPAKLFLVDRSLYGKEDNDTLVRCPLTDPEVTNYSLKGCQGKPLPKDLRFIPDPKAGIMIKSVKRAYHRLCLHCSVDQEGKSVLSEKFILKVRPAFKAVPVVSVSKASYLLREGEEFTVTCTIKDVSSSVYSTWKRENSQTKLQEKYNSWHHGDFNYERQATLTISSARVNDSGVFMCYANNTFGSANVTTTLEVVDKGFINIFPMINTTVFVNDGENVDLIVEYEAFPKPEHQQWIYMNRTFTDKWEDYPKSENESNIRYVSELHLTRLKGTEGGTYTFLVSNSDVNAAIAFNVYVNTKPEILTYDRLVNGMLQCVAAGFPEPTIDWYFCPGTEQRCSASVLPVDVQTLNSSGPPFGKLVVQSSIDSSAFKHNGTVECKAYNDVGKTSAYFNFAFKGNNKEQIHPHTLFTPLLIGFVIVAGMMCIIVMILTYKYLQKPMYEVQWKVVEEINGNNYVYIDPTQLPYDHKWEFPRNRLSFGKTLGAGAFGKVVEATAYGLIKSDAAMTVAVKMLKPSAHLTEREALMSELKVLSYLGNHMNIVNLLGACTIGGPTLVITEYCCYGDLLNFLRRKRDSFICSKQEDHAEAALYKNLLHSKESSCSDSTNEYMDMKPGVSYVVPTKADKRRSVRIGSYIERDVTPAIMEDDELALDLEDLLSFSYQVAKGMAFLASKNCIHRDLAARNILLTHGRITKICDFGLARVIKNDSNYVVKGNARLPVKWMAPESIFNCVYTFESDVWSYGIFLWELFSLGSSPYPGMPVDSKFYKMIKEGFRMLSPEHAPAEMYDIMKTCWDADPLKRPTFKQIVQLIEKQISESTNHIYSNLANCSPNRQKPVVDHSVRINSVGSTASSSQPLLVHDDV

[7] = molecular target: Mast/stem cell growth factor receptor Kit (Homo sapiens, UniProt P10721, D816H); assay: Inhibition of recombinant human C-Kit D816H mutant (544 to end residues) using poly(Glu, Tyr) 4:1 as substrate incubated 40 mins in presence of [gamma-33ATP] by radiometric scintillation counting analysis
Sequence of Mast/stem cell growth factor receptor Kit (Homo sapiens, UniProt P10721, D816H) (P10721 26-976 D816H limits assumed): as the sequence (P10721 26-976 D816V limits assumed) above, with V791H counted along it

[8] = Inhibition of recombinant human PKCeta V108L/G109R/L392Q triple mutant (2 to end residues) using ERMRPRKRQGSVRR as substrate incubated for 40 mins in presence of [gamma33P]ATP by radiometric scintillation counting analysis
[9] = molecular target: Protein kinase C alpha type (Homo sapiens, UniProt P17252); assay: Inhibition of recombinant human full length PKCalpha using histone as substrate incubated for 40 mins in presence of [gamma33P]ATP by radiometric scintillation counting analysis
[10] = molecular target: Serine/threonine-protein kinase Nek9 (Homo sapiens, UniProt Q8TD19); assay: Inhibition of recombinant human NEK9 (1 to 324 residues) using myelin basic protein as substrate measured after 40 mins in presence of [gamma33P]ATP by radiometric scintillation counting analysis
Sequence of Serine/threonine-protein kinase Nek9 (Q8TD19 whole entry, the tested form may be a part): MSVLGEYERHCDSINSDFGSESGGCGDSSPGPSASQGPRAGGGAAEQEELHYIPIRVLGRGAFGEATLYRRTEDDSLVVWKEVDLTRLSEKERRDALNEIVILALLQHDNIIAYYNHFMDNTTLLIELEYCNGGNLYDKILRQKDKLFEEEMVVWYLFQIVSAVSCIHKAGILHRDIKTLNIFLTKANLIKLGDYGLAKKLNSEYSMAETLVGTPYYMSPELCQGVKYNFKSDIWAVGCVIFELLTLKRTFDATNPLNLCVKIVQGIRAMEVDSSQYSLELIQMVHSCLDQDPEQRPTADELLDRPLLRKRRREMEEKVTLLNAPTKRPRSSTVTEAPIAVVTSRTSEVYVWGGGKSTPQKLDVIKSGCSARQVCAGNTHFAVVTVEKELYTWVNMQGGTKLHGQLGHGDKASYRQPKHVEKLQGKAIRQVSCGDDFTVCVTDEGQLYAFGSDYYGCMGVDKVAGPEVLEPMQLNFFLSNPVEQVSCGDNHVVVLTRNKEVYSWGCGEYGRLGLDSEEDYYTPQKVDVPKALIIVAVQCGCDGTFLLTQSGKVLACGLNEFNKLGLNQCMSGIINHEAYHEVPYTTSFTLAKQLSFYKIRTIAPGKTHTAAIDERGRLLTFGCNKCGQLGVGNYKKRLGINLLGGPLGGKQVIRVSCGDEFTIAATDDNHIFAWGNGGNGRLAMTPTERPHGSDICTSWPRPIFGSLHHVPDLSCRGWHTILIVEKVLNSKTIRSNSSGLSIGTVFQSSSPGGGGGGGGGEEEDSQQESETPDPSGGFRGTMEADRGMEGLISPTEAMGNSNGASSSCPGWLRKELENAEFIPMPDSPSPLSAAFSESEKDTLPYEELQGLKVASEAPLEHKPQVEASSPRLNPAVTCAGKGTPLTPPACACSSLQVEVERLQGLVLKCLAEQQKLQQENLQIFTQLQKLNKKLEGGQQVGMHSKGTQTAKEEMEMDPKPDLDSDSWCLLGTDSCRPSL

[11] = molecular target: Serine/threonine-protein kinase 24 (Homo sapiens, UniProt Q9Y6E0); assay: Inhibition of recombinant human MST3 (1 to 304 residues) using ERMRPRKRQGSVR as substrate measured after 40 mins in presence of [gamma33P]ATP by radiometric scintillation counting analysis
Sequence of Serine/threonine-protein kinase 24 (Q9Y6E0 whole entry, the tested form may be a part): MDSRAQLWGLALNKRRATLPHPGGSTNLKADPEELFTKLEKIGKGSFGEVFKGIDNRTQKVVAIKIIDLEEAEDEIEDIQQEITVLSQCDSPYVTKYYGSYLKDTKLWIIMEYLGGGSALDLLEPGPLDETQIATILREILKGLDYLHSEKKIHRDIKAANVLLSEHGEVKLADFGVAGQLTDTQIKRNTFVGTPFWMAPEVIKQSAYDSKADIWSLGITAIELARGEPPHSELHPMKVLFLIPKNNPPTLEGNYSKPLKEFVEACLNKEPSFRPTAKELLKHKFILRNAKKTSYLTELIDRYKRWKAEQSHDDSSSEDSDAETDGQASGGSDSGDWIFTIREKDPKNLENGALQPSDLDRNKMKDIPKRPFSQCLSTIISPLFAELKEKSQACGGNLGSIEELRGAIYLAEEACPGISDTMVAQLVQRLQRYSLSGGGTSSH

[12] = molecular target: Hepatocyte growth factor receptor (Homo sapiens, UniProt P08581, Y1230D); assay: Inhibition of recombinant human MET A1209G/V1290L/Y1248D triple mutant (974 to end residues) using KKKGQEEEYVFIE as substrate incubated for 40 mins in presence of [gamma-33ATP by radiometric scintillation counting analysis
[13] = molecular target: Phosphorylase b kinase gamma catalytic chain, skeletal muscle/heart isoform (Homo sapiens, UniProt Q16816); assay: Inhibition of recombinant full-length human PhKgamma1 using KKLNRTLSFAEPG as substrate incubated for 40 mins in presence of [gamma33P]ATP by radiometric scintillation counting analysis
[14] = Inhibition of recombinant human FLT4 V1128L/H1146R double mutant (800 to end residues) using GGEEEEYFELVKK as substrate after 40 mins in presence of [gamma-33ATP] by radiometric scintillation counting analysis
[15] = molecular target: Homeodomain-interacting protein kinase 1 (Homo sapiens, UniProt Q86Z02); assay: Inhibition of human recombinant HIPK1 (158 to 555 residues) using myelin basic protein as substrate after 40 mins by [gamma-33ATP] radiometric assay
[16] = molecular target: Homeodomain-interacting protein kinase 3 (Homo sapiens, UniProt Q9H422); assay: Inhibition of human recombinant HIPK3 (161 to 562 residues) using myelin basic protein as substrate after 40 mins by [gamma-33ATP] radiometric assay
Sequence of Homeodomain-interacting protein kinase 3 (Q9H422 whole entry, the tested form may be a part): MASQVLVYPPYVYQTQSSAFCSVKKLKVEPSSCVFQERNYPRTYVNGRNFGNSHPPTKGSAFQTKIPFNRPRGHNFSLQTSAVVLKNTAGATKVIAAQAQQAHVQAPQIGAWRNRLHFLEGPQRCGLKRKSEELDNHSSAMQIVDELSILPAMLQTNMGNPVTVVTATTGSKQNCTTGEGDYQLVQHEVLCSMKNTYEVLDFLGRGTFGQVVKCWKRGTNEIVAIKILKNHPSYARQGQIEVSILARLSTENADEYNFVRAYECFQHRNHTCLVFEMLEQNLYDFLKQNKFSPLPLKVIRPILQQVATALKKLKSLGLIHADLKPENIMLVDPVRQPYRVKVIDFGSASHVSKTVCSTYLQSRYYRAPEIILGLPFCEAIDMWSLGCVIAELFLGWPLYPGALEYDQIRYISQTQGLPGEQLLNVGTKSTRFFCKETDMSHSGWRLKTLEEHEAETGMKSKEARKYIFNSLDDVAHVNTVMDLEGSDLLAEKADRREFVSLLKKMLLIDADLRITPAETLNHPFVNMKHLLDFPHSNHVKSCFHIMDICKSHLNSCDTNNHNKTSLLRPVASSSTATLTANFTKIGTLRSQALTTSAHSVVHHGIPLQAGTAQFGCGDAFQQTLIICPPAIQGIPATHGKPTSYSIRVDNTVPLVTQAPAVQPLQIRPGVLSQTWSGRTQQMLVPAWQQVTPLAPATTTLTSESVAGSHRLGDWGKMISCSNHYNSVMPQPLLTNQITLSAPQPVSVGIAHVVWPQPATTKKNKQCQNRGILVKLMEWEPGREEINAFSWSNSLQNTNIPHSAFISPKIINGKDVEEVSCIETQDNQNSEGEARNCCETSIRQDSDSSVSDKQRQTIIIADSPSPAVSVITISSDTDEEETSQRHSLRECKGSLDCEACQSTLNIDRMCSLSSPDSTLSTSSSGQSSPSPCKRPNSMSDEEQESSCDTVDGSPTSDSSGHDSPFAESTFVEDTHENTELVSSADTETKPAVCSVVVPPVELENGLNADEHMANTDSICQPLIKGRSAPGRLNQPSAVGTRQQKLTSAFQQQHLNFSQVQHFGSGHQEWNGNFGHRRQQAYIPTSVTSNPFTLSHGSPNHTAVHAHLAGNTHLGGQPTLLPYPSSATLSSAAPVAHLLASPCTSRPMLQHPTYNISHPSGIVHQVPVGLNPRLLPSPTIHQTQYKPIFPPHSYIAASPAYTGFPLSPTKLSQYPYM

Insulin receptor = Insulin receptor (Homo sapiens, UniProt P06213); assay: Inhibition of human recombinant activated IR (1005 to 1310 residues) using KKSRGDYMTMQIG as substrate after 40 mins by [gamma-33ATP]by radiometric scintillation counting analysis
[17] = molecular target: Interleukin-1 receptor-associated kinase 1 (Homo sapiens, UniProt P51617); assay: Inhibition of human recombinant IRAK1 (194 to end residues) using myelin basic protein as substrate after 40 mins by [gamma-33ATP] by radiometric scintillation counting analysis
Sequence of Interleukin-1 receptor-associated kinase 1 (P51617 whole entry): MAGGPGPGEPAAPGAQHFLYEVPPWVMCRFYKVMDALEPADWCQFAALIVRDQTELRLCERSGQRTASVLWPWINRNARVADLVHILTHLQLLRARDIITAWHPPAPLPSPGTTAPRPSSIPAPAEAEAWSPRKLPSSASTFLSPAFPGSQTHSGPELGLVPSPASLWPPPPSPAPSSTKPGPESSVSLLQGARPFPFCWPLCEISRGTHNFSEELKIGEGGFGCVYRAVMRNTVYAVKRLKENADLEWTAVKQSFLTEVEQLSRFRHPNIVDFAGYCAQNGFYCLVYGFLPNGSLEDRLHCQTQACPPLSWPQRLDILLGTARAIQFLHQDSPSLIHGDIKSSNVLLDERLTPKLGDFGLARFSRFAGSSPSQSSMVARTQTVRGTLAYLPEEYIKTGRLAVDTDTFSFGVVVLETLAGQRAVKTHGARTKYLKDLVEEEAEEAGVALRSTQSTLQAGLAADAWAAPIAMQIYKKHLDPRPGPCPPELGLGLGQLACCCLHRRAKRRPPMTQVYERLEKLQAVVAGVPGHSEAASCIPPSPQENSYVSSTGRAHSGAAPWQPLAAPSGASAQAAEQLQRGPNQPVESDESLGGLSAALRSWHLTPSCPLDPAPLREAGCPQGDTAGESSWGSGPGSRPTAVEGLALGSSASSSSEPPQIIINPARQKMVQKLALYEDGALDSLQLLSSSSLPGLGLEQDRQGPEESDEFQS

[18] = molecular target: MAP/microtubule affinity-regulating kinase 3 (Homo sapiens, UniProt P27448); assay: Inhibition of recombinant full length human MARK3 using KKKVSRSGLYRSP as substrate incubated for 40 mins in presence of [gamma-33ATP by radiometric scintillation counting analysis
[19] = molecular target: Serine/threonine-protein kinase Sgk3 (Homo sapiens, UniProt Q96BR1); assay: Inhibition of recombinant human SGK3 (119 to end residues) using GRPRTSSFAEGKK as substrate incubated for 40 mins in presence of [gamma33P]ATP by radiometric scintillation counting analysis
Sequence of Serine/threonine-protein kinase Sgk3 (Q96BR1 whole entry): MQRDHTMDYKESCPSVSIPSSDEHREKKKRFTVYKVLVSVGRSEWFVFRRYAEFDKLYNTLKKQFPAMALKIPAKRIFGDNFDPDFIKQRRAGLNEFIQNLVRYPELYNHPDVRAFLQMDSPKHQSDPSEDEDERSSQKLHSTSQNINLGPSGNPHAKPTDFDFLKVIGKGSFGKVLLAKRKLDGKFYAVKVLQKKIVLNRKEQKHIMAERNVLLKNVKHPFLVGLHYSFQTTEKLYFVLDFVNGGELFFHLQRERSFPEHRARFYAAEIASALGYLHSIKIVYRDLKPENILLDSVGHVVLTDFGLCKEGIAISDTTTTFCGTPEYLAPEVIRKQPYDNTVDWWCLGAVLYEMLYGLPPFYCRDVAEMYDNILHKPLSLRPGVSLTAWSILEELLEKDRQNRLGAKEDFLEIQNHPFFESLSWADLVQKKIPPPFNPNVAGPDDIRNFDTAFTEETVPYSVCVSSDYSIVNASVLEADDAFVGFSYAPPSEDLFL

[20] = Inhibition of activated recombinant human TEC F514V mutant (174 to end residues) using EFPIYDFLPAKKK as substrate incubated for 40 mins in presence of [gamma33P]ATP by radiometric scintillation counting analysis
[21] = Inhibition of recombinant human TIE2 Q939H/Q940H/Y897S triple mutant (771 to end residues) using EFPIYDFLPAKKK as substrate incubated for 40 mins in presence of [gamma33P]ATP by radiometric scintillation counting analysis
[22] = molecular target: Testis-specific serine/threonine-protein kinase 4 (Homo sapiens, UniProt Q6SA08); assay: Inhibition of recombinant full-length human TSSK4 using KKLNRTLSFAEPG as substrate incubated for 40 mins in presence of [gamma33P]ATP by radiometric scintillation counting analysis
[23] = molecular target: Serine/threonine-protein kinase VRK2 (Homo sapiens, UniProt Q86Y07); assay: Inhibition of recombinant human VRK2 (1 to 336 residues) using casein as substrate incubated for 40 mins in presence of [gamma33P]ATP by radiometric scintillation counting analysis
[24] = molecular target: Serine/threonine-protein kinase WNK1 (Homo sapiens, UniProt Q9H4A3); assay: Inhibition of recombinant human WNK1 (1 to 491 residues) using myelin basic protein as substrate incubated for 40 mins in presence of [gamma33P]ATP by radiometric scintillation counting analysis

SMILES: CN(C)c1ccc(C(=O)Nc2cccc(NC(=O)COc3ccc4c(=O)ccoc4c3)c2)cc1
- fraction unbound at 5 h, 1 µM [1]: 0.002
- IC50 [2]: > 10 µM
- IC50 [3]: > 10 µM
- IC50 [4]: > 10 µM
- IC50 [5]: > 10 µM
- IC50 (CDK6/cyclin D3): > 10 µM
- IC50 [6]: > 10 µM
- IC50 [7]: > 10 µM
- IC50 [8]: > 10 µM
- IC50 [9]: > 10 µM
- IC50 [10]: > 10 µM
- IC50 [11]: > 10 µM
- IC50 [12]: > 10 µM
- IC50 [13]: > 10 µM
- IC50 [14]: > 10 µM
- IC50 [15]: > 10 µM
- IC50 [16]: > 10 µM
- IC50 (Insulin receptor): > 10 µM
- IC50 [17]: > 10 µM
- IC50 [18]: > 10 µM
- IC50 [19]: > 10 µM
- IC50 [20]: > 10 µM
- IC50 [21]: > 10 µM
- IC50 [22]: > 10 µM
- IC50 [23]: > 10 µM
- IC50 [24]: > 10 µM

— ChEMBL document CHEMBL4376834, “Discovery of 4H-Chromen-4-one Derivatives as a New Class of Selective Rho Kinase (ROCK) Inhibitors, which Showed Potent Activity in ex Vivo Diabetic Retinopathy Models” (J Med Chem, 2019)
